Measured values as given in paper PMC11872507, “Lasso peptides sviceucin and siamycin I exhibit anti-virulence activity and restore vancomycin effectiveness in vancomycin-resistant pathogens” (iScience, 2025).
Values after ≈ are worked out from the molar mass of the structure shown.

Tests used:
E. faecalis V583 = assay: Checkerboard broth microdilution; assay type: cell-based; conditions: Enterococcus faecalis, control, vancomycin alone
Description: Since sviceucin and siamycin I inhibit signal transduction of the FsrAC TCS in vivo, we next wondered if the lasso peptides would also target other TCSs. In E. faecalis, the VanRS TCS regulates resistance to vancomycin, an antibiotic of clinical importance. The minimum inhibitory concentrations (MICs) of this antibiotic in combination with the lasso peptides were thus determined for clinically relevant Enterococcus and S. aureus strains from our in-house collection. The chosen concentrations of the peptides (2 μM of siamycin I and 10 μM of sviceucin) are the lowest subinhibitory concentrations that allow the maximum synergy with vancomycin, as determined by the checkerboard method on the E. faecalis V583 strain (Table S1).

SiaA = assay: Vancomycin MIC, microdilution; assay type: cell-based, Enterococcus faecalis
Procedure: (§1) The MIC of vancomycin was determined by the microdilution method described in the guidelines of the European Committee on Antimicrobial Susceptibility Testing (EUCAST 2024, v14.0 Breakpoint Tables).[58] For enterococci, GM17 medium was used instead of CAMH medium since enterococci cannot degrade starch, the main carbohydrate of MH medium. 2-fold serial dilutions of the tested antibiotic were performed to obtain concentrations ranging from 0.5 to 512 μg/mL. LP were then added to the wells at the desired concentration. The medium was inoculated with a final inoculum of 5 × 10^5 CFU/mL. The MIC is the lowest concentration that prevents visible in vitro growth.
(§2) Resistant clones to sviceucin were selected by plating bacteria on GM17 agar medium supplemented with vancomycin at 32 μg/mL and sviceucin at 10 μM. Growth and MIC of vancomycin and sviceucin of the resistant clones were tested. The selection for siamycin I resistance was done by performing serial passages of bacteria in GM17 medium supplemented with vancomycin 10 μg/mL and increasing concentrations of siamycin I from 0.5 to 5 μM. Single nucleotide polymorphism (SNPs) analysis was performed on the sequenced gDNA of each selected resistant mutant.

Svic1 = assay: Vancomycin MIC, microdilution; assay type: cell-based, Enterococcus faecalis
Procedure: as §1, §2

E. faecium 1 231 502 = assay: microbe, parasite or virus in culture; assay type: cell-based, Enterococcus faecium; conditions: Enterococcus faecium, 1231502, read-out: Vancomycin MIC
SiaC = assay: Vancomycin MIC, spontaneous mutants; assay type: cell-based; conditions: Enterococcus faecalis; vancomycin alone; CcpA A148V
Procedure: as §1, §2

Svic4 = assay: Vancomycin MIC, spontaneous mutants; assay type: cell-based; conditions: Enterococcus faecalis; vancomycin alone; atpD RBS modification
Procedure: as §1, §2

Svic2 = assay: Vancomycin MIC, spontaneous mutants; assay type: cell-based; conditions: Enterococcus faecalis; vancomycin alone; nonsense mutation in atpA
Procedure: as §1, §2

SiaE = assay: Vancomycin MIC, spontaneous mutants; assay type: cell-based; conditions: Enterococcus faecalis; vancomycin alone; frameshift in ccpA
Procedure: as §1, §2

SiaD = assay: Vancomycin MIC, spontaneous mutants; assay type: cell-based; conditions: Enterococcus faecalis; vancomycin alone; CcpA A89P
Procedure: as §1, §2

SiaB = assay: Vancomycin MIC, spontaneous mutants; assay type: cell-based; conditions: Enterococcus faecalis; vancomycin alone; CcpA D121V
Procedure: as §1, §2

Svic3 = assay: Vancomycin MIC, spontaneous mutants; assay type: cell-based; conditions: Enterococcus faecalis; vancomycin alone; nonsense mutation in atpF
Procedure: as §1, §2

V583 ΔvanSB = assay: Vancomycin MIC, microdilution; assay type: cell-based; conditions: Enterococcus faecalis; vancomycin alone (control)
Procedure: The MIC of vancomycin was determined by the microdilution method described in the guidelines of the European Committee on Antimicrobial Susceptibility Testing (EUCAST 2024, v14.0 Breakpoint Tables).[58] […] 2-fold serial dilutions of the tested antibiotic were performed to obtain concentrations ranging from 0.5 to 512 μg/mL. LP were then added to the wells at the desired concentration. The medium was inoculated with a final inoculum of 5 × 10^5 CFU/mL. The MIC is the lowest concentration that prevents visible in vitro growth.

E. faecalis JH2-2 08048 = assay: microbe, parasite or virus in culture; assay type: cell-based, Enterococcus faecalis; conditions: Enterococcus faecalis, JH2208048, read-out: Vancomycin MIC
Procedure: as §1

V583 vanSB^D398E = assay: Vancomycin MIC, microdilution; assay type: cell-based; conditions: Enterococcus faecalis; vancomycin alone (control)
E. faecium 1 230 933 = assay: microbe, parasite or virus in culture; assay type: cell-based, Enterococcus faecium; conditions: Enterococcus faecium, 1230933, read-out: Vancomycin MIC
E. faecalis HIP11704 = assay: microbe, parasite or virus in culture; assay type: cell-based, Enterococcus faecalis; conditions: Enterococcus faecalis, HIP11704, read-out: Vancomycin MIC
S. aureus 16038 (VISA) = assay: microbe, parasite or virus in culture; assay type: cell-based, Staphylococcus aureus; conditions: Staphylococcus aureus, VISA, read-out: Vancomycin MIC
V583 ΔvanB::vanA = assay: Vancomycin MIC, microdilution; assay type: cell-based; conditions: Enterococcus faecalis; vancomycin alone (control)
Procedure: (§3) To further support this, we investigated the origin of the different activity spectra of sviceucin and siamycin I between VanA- and VanB-type vancomycin resistance. We first replaced vanSB by vanS in the VanB-type strain E. faecalis V583. VanS-VanRB strain was sensitive to vancomycin (MIC = 2 μg/mL), probably because of an impaired signal transduction between VanS and VanRB. To bypass this issue, we replaced the vanRBSB-PvanYB fragment by the vanRS-PvanH fragment from a VanA-type operon, resulting in a VanA-type transduction system fused to VanB-type resistance genes.

[1] = test system: V583 ΔvanSB-vanRB::vanS-vanR; assay: Vancomycin MIC, microdilution; assay type: cell-based; conditions: Enterococcus faecalis; vancomycin alone (control); VanA-type transduction system, VanB-type resistance genes
Procedure: as §3

VanS-VanRB strain = assay: Vancomycin MIC, microdilution; assay type: cell-based; conditions: Enterococcus faecalis; vanSB replaced by vanS in V583
Procedure: as §3

E. faecalis merz96 = assay: microbe, parasite or virus in culture; assay type: cell-based, Enterococcus faecalis; conditions: Enterococcus faecalis, MERZ96, read-out: Vancomycin MIC
S. aureus T-SAR12 VRSA.A = assay: microbe, parasite or virus in culture; assay type: cell-based, Staphylococcus aureus; conditions: Staphylococcus aureus, VRSA, read-out: Vancomycin MIC
Procedure: as §1

S. aureus T-SAR12 VRSA.B = assay: microbe, parasite or virus in culture; assay type: cell-based, Staphylococcus aureus; conditions: Staphylococcus aureus, VRSA, read-out: Vancomycin MIC
Procedure: as §1

E. faecalis V583 ΔvanB = assay: microbe, parasite or virus in culture; assay type: cell-based, Enterococcus faecalis; conditions: Enterococcus faecalis, read-out: Vancomycin MIC
[2] = Enterococcus faecalis, read-out: Vancomycin MIC

With `CN[C@H](CC(C)C)C(=O)N[C@H]1C(=O)N[C@@H](CC(N)=O)C(=O)N[C@H]2C(=O)N[C@H]3C(=O)N[C@H](C(=O)N[C@H](C(=O)O)c4cc(O)cc(O)c4-c4cc3ccc4O)[C@H](O)c3ccc(c(Cl)c3)Oc3cc2cc(c3O[C@@H]2O[C@H](CO)[C@@H](O)[C@H](O)[C@H]2O[C@H]2C[C@](C)(N)[C@H](O)[C@H](C)O2)Oc2ccc(cc2Cl)[C@H]1O` [Vancomycin] the MIC (E. faecalis V583) was 32 µg/mL, the MIC (SiaA; [2]) was 128 µg/mL (≈ 88.3 µM) and the “fold increase of the MIC of vancomycin vs wild-type” value (SiaA; vancomycin alone) was 4 fold. For the same molecule, the “Vancomycin MIC” value (SiaA; {}) was 128 µg/mL, the MIC (Svic1; [2]) was 128 µg/mL (≈ 88.3 µM) and the “fold increase of the MIC of vancomycin vs wild-type” value (Svic1; vancomycin alone) was 4 fold. The “Vancomycin MIC” value (Svic1; {}) was 128 µg/mL, the MIC (E. faecium 1 231 502) was 128 µg/mL (≈ 88.3 µM) and the MIC (SiaC) was 64 µg/mL (≈ 44.2 µM). The MIC (Svic4) was 256 µg/mL (≈ 177 µM), the MIC (Svic2) was 256 µg/mL (≈ 177 µM) and the MIC (SiaE) was 32 µg/mL. For the same molecule, the MIC (SiaD) was 64 µg/mL (≈ 44.2 µM), the MIC (SiaB) was 64 µg/mL (≈ 44.2 µM) and the MIC (Svic3) was 256 µg/mL (≈ 177 µM). The MIC (V583 ΔvanSB) was 2 µg/mL (≈ 1.38 µM), the MIC (E. faecalis JH2-2 08048) was 64 µg/mL (≈ 44.2 µM) and the MIC (V583 vanSB^D398E) was 128 µg/mL (≈ 88.3 µM). For the same molecule, the MIC (E. faecium 1 230 933) was 512 µg/mL (≈ 353 µM), the MIC (E. faecalis HIP11704) was 1020 µg/mL (≈ 707 µM) and the MIC (S. aureus 16038 (VISA)) was 4 µg/mL (≈ 2.76 µM). The MIC (V583 ΔvanB::vanA) was 32 µg/mL (≈ 22.1 µM), the MIC [1] was 32 µg/mL (≈ 22.1 µM) and the MIC (VanS-VanRB strain) was 2 µg/mL (≈ 1.38 µM). The MIC (E. faecalis merz96) was 32 µg/mL (≈ 22.1 µM), the MIC (S. aureus T-SAR12 VRSA.A) was greater than 512 µg/mL and the MIC (S. aureus T-SAR12 VRSA.B) was 64 µg/mL (≈ 44.2 µM). It also gave an MIC (E. faecalis V583 ΔvanB) of 2 µg/mL (≈ 1.38 µM).
